# Laboratory results published in patent US6355635B1, “Compounds for the treatment of obesity” (Pfizer Inc., priority 1999, dated 2002).
# Tested on: endogenous NPY response
# Test: Endogenous NPY response in Bowes melanoma host cells
# Conditions: 10 uM; human Bowes melanoma cells (HMCB), low levels of Y1 responses
# Procedure: This plasmid construct is used along with calcium phosphates to stably transfect human Bowes melanoma cells (HMCB; obtained from ATCC, Rockville, Md.), a cell line in which several Gαi-linked receptors are expressed at reasonable levels and are coupled to functional responses. Cells are maintained at 37° C. and 5% CO2 in Eagle's minimum essential medium with 0.1 mM non-essential amino acids, 1.0 mM sodium pyruvate and 25 mM HEPES which is supplemented with 10% fetal bovine serum (pH 7.3).
smiles,measurement,value
NC(N)=NCCC[C@@H](NC(=O)C(c1ccccc1)c1ccccc1)C(=O)NCc1ccc(O)cc1 [BIBP3226],block of the endogenous NPY response,completely blocks
